Experimental data: patent publication US20220079931A1, “ESTROGEN RECEPTOR PROTEIN DEGRADERS” (THE REGENTS OF THE UNIVERSITY OF MICHIGAN, priority 2019, published 2022)

How the values were obtained:
ERα = molecular target: T1, ERα (Homo sapiens, UniProt P03372); assay: ER degradation by Western blotting in MCF-7 cells; type: cell-based; set-up: host or cells: MCF-7
T1 sequence (P03372 1-595): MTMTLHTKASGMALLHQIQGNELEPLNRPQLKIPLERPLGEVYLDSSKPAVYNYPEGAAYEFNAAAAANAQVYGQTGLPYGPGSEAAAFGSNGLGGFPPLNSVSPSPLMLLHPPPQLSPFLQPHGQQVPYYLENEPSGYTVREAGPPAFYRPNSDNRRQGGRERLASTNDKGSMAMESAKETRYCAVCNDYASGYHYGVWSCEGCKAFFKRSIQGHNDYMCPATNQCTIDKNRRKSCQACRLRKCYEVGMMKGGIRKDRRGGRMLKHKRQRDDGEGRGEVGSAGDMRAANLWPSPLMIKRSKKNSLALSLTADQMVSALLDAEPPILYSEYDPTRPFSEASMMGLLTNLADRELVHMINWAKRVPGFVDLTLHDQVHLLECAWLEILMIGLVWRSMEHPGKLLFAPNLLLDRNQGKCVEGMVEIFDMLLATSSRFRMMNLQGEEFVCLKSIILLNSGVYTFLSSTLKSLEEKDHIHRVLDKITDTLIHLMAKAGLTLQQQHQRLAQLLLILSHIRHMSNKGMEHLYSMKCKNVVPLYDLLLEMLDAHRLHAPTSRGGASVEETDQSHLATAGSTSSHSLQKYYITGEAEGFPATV
Protocol: FIG. 1 is an image showing the Western blotting analysis of ER protein in MCF-7 cells treated with Compounds of the Disclosure and control compounds. Cells were treated with different compounds for 4 h and whole cell lysates were then analyzed by Western blotting to examine the level of ER protein. GADPH protein was used for the loading control. The numbers below the panel represent the ERα/GADPH ratio normalized with the DMSO control at 100.
FIG. 2 is an image showing the Western blotting analysis of ER protein in the MCF-7 cells treated with indicated compounds at 1 nM, 10 nM and 100 nM. MCF-7 cells were treated with different compounds for 4 h and whole cell lysates were analyzed by Western blotting to examine the level of ER protein. GADPH protein was used for the loading control. The numbers below the panel represent the ERα/GADPH ratio normalized with the DMSO control at 100.
FIG. 7 is an image showing the ERα degradation dose-response Western blotting for compound 32 at 4 h in MCF-7 cells.
FIG. 9 is an image showing the time course of ERα degradation by Western blotting by compound 32 (30 nM) and fulvestrant (30 nM) in the MCF-7 cells.
Cell Culture. Human breast cancer cell lines MCF-7 (ATCC® HTB-22™) and T47D (ATCC® HTB-133™) were purchased from the American Type Culture Collection (ATCC), Manassas, Va., and maintained and cultured in Dulbecco's Modified Eagle's medium (DMEM) containing 10% fetal bovine serum, 1 unit/ml of penicillin and 1 μg/ml of streptomycin. Cells with 3-8 passages after purchase were used in experiments as indicated.
Western Blot Analysis. Western blot analysis was performed essentially as described previously (Hu et al, 2015, PMID: 26358219). Cells treated with indicated compounds were lysed in Radioimmunoprecipitation Assay Protein Lysis and Extraction Buffer (25 mmol/L Tris.HCl, pH 7.6, 150 mmol/L NaCl, 1% Nonidet P-40, 1% sodium deoxycholate, and 0.1% sodium dodecyl sulfate) containing proteinase inhibitor cocktail (Roche Diagnostics, Mannheim, Germany). After determination of protein concentration by BCA assay (Fisher Scientific, Pittsburgh, Pa.), equal amounts of total protein were electrophoresed through 10% SDS-polyacrylamide gels. The separated protein bands were transferred onto PVDF membranes (GE Healthcare Life Sciences, Marlborough, Mass.) and blotted against different antibodies, as indicated. The human estrogen receptor a antibodies (AB16460) were purchased from Abeam, Inc., Cambridge, Mass. The membranes were reblotted with horseradish peroxidase-conjugated anti-glyceraldehyde-3-phosphate dehydrogenase antibody (G9295) from Sigma-Aldrich Corporation, St. Louis, Mo. The blots were scanned and the band intensities were quantified using GelQuant.NET software as described in biochemlabsolutions.com. The relative mean intensity of target proteins was expressed after normalization to the intensity of glyceraldehyde-3-phosphate dehydrogenase bands from individual repeats.

[1] = tested on: mRNA levels of pGR and GREB1; assay: qRT-PCR of ER-regulated genes in MCF-7 cells

## CCN(CCCCCOCC(=O)N[C@H](C(=O)N1C[C@H](O)C[C@H]1C(=O)N[C@@H](C)c1ccc(-c2scnc2C)cc1)C(C)(C)C)CCOc1ccc(C(=O)c2c(-c3ccc(O)cc3)sc3cc(O)ccc23)cc1 [compound 32, (2S,4R)-1-((S)-2-(2-((5-(Ethyl(2-(4-(6-hydroxy-2-(4-hydroxyphenyl)benzo[b]thiophene-3-carbonyl)phenoxy)ethyl)amino)pentyl)oxy)acetamido)-3,3-dimethylbutanoyl)-4-hydroxy-N—((S)-1-(4-(4-methylthiazol-5-yl)phenyl)ethyl)pyrrolidine-2-carboxamide]
ERα; 30 nM, 1 h treatment
  reduction of ER protein level at 1 h: > 80%
ERα; 30 nM, 3 h
  ER degradation at the 3 h time-point: essentially complete ER degradation
ERα; 4 h treatment, read-out: DC50 (concentration to achieve 50% of protein degradation)
  DC50: 0.17 nM
ERα; at concentrations as low as 5 nM
  maximum ER degradation: > 95%
[1]; 10 nM and 100 nM
  suppression of pGR and GREB1 expression compared with fulvestrant: slightly more effective than fulvestrant
  suppression of pGR and GREB1 expression compared with raloxifene: significantly more effective than raloxifene
[1]; qRT-PCR
  suppression of expression of pGR and GREB1: strongly suppressed
